{
  "source": "PubChem BioAssay AID226",
  "about": "(DTP/NCI, 2004)",
  "tested_on": "B6C3F1 mice, intracerebral ependymoblastoma, median survival T/C",
  "assay": "NCI In Vivo Anticancer Drug Screen. Data for tumor model Ependymoblastoma (intracerebral) in B6C3F1 mice",
  "conditions": "endpoint: median survival time, higher = longer survival",
  "experimental": "The antitumor activity of compounds was measured in mice bearing transplantable tumors. Survival or tumor size were measured and the results are expressed as the measurement made in the treated group (T) divided by the measurement made in the vehicle treated control group (C). The tumor model used in this assay is Ependymoblastoma (intracerebral) in B6C3F1 mice",
  "note": "“And” between values parts separate entries of the source, which are not always exact repeats. Equal entries are not always repeated. Inconclusive results and toxic doses are left out.",
  "data": [
    {"smiles": "CC(CN1CC(=O)NC(=O)C1)N1CC(=O)NC(=O)C1", "note": "(configuration not stated)", "values": [
      {"measurement": "T/C", "setting": "dose: 8.0 mg/kg/injection, schedule: Q01DX001 (ip), vehicle: Klucel (hydroxypropylcellulose) (HPC)", "result": "101 % of control and 102 % of control"},
      {"measurement": "T/C", "setting": "dose: 16.0 mg/kg/injection, schedule: Q01DX001 (ip), vehicle: Klucel (hydroxypropylcellulose) (HPC)", "result": "104 % of control and 86 % of control"},
      {"measurement": "T/C", "setting": "dose: 32.0 mg/kg/injection, schedule: Q01DX001 (ip), vehicle: Klucel (hydroxypropylcellulose) (HPC)", "result": "101 % of control and 102 % of control"},
      {"measurement": "T/C", "setting": "dose: 64.0 mg/kg/injection, schedule: Q01DX001 (ip), vehicle: Klucel (hydroxypropylcellulose) (HPC)", "result": "103 % of control and 109 % of control"},
      {"measurement": "T/C", "setting": "dose: 128.0 mg/kg/injection, schedule: Q01DX001 (ip), vehicle: Klucel (hydroxypropylcellulose) (HPC)", "result": "99 % of control and 103 % of control"}
    ]},
    {"smiles": "CN(C)C1=CC(=O)C(N(C)C)=CC1=O", "values": [
      {"measurement": "T/C", "setting": "dose: 12.5 mg/kg/injection, schedule: Q01DX005 (ip), vehicle: saline", "result": "105 % of control"},
      {"measurement": "T/C", "setting": "dose: 25.0 mg/kg/injection, schedule: Q01DX005 (ip), vehicle: saline", "result": "101 % of control"},
      {"measurement": "T/C", "setting": "dose: 50.0 mg/kg/injection, schedule: Q01DX005 (ip), vehicle: saline", "result": "100 % of control"},
      {"measurement": "T/C", "setting": "dose: 100.0 mg/kg/injection, schedule: Q01DX005 (ip), vehicle: saline", "result": "97 % of control"}
    ]},
    {"smiles": "O=NN(CCCl)C(=O)NC1CCCN(Cc2ccccc2)C1", "note": "(configuration not stated)", "values": [
      {"measurement": "T/C", "setting": "dose: 50.0 mg/kg/injection, schedule: Q01DX001 (ip), vehicle: distilled water + Tween-80", "result": "178 % of control"},
      {"measurement": "T/C", "setting": "dose: 100.0 mg/kg/injection, schedule: Q01DX001 (ip), vehicle: distilled water + Tween-80", "result": "223 % of control"}
    ]},
    {"smiles": "CC(=O)OCC1C(=O)OCC1C(=O)N1Cc2cc3ccccc3nc2C1", "note": "(configuration not stated)", "values": [
      {"measurement": "T/C", "setting": "dose: 4.0 mg/kg/injection, schedule: Q01DX005 (ip), vehicle: saline with Tween-80", "result": "99 % of control"},
      {"measurement": "T/C", "setting": "dose: 8.0 mg/kg/injection, schedule: Q01DX005 (ip), vehicle: saline with Tween-80", "result": "103 % of control and 104 % of control"},
      {"measurement": "T/C", "setting": "dose: 16.0 mg/kg/injection, schedule: Q01DX005 (ip), vehicle: saline with Tween-80", "result": "104 % of control"},
      {"measurement": "T/C", "setting": "dose: 32.0 mg/kg/injection, schedule: Q01DX005 (ip), vehicle: saline with Tween-80", "result": "104 % of control"},
      {"measurement": "T/C", "setting": "dose: 64.0 mg/kg/injection, schedule: Q01DX005 (ip), vehicle: saline with Tween-80", "result": "90 % of control and 101 % of control"},
      {"measurement": "T/C", "setting": "dose: 128.0 mg/kg/injection, schedule: Q01DX005 (ip), vehicle: saline with Tween-80", "result": "90 % of control"}
    ]}
  ]
}
